Like-named read-outs stand apart in the source and are kept apart here.
Key:
[1] = target: Asu-ACR-16 (nicotine sensitive nAChR) (Ascaris suum, UniProt F1KYJ9); experiment: Two-electrode voltage-clamp on Asu-ACR-16 nAChR expressed in Xenopus laevis oocytes; assay type: cell-based
Method: (§1) All nAChR subunit and ancillary factor cRNAs from A. suum (Asu-acr-16 and Asu-ric-3), O. dentatum (Ode-unc-29, Ode-unc-38, […] and Ode-acr-8) and H. contortus (Hco-ric-3, Hco-unc-50 and Hco-unc-74) were prepared as previously described ([Abongwa et al., 2016a], [Buxton et al., 2014]). Briefly, defolliculated X. laevis oocytes were obtained from Ecocyte Bioscience (Austin, TX, USA). A Nanoject II microinjector (Drummond Scientific, Broomall, PA, USA) was used to inject cRNA into the cytoplasm at the animal pole region of the oocytes. Homomeric nAChRs comprising Asu-ACR-16 subunits were expressed by co-injecting 25 ng of Asu-acr-16 with 5 ng of Asu-ric-3 in a total volume of 50 nl in nuclease-free water. Heteromeric nAChRs from O. dentatum were expressed by co-injecting 1.8 ng of each subunit cRNA that make up the levamisole (Ode-unc-29, Ode-unc-38, […] and Ode-acr-8) or pyrantel/tribendimidine (Ode-unc-29, Ode-unc-38 and Ode-unc-63) receptor with 1.8 ng of each H. contortus ancillary factor (Hco-ric-3, Hco-unc-50 and Hco-unc-74) in a total volume of 36 nl in nuclease-free water. Injected oocytes were transferred to 96-well microtiter plates containing 200 μl incubation solution (100 mM NaCl, 2 mM KCl, 1.8 mM CaCl2·2H20, 1 mM MgCl2·6H20, 5 mM HEPES, 2.5 mM Na pyruvate, 100 U·ml^−1penicillin and 100 μg ml^−1 streptomycin, pH 7.5) and incubated at 19 °C for 5–7 days to allow for functional receptor expression. Incubation solution was changed daily.
(§2) Currents produced by activation of expressed Asu-ACR-16 and Ode levamisole sensitive and Ode pyrantel/tribendimidine sensitive receptors were recorded using the two-electrode voltage-clamp electrophysiology technique as previously described ([Abongwa et al., 2016a], [Buxton et al., 2014]). 100 μM BAPTA-AM was added to the oocyte incubation solution about 4 h prior to recording to prevent activation of endogenous calcium-activated chloride currents during recording. Recordings were made using an Axoclamp 2B amplifier (Molecular Devices, Sunnyvale, CA, USA) and data acquired on a computer with Clampex 10.3 (Molecular Devices, Sunnyvale, CA, USA). For all experiments, oocytes were voltage-clamped at −60 mV. Microelectrodes for impaling oocytes were pulled using a Flaming/Brown horizontal electrode puller (Model P-97; Sutter Instruments, Novato, CA, USA). The microelectrodes were filled with 3 M KCl and their tips carefully broken with a piece of tissue paper to attain a resistance of 2–5 MΩ in recording solution (100 mM NaCl, 2.5 mM KCl, 1 mM CaCl2·2H2O and 5 mM HEPES, pH 7.3).
(§3) Electrophysiology data was measured with Clampfit 10.3 (Molecular devices, Sunnyvale CA, USA) and analyzed with GraphPad Prism 5.0 (GraphPad Software Inc., La Jolla, CA, USA). […] Concentration-response relationships (for each oocyte) were analyzed by fitting log concentration-response data points with the Hill equation as previously described ([Boulin et al., 2008]). % inhibition for monepantel was calculated using 100-Rmax for each experiment and plotted as mean ± s.e.m. on the concentration-inhibition plots. IC50's were calculated as previously described ([Zheng et al., 2016]). We used one-way ANOVA to test for statistical differences among treatment groups. If the group means were statistically different (p < .05), we used the Tukey multiple comparison test to determine significant differences between groups.

[2] = target: Ode pyrantel/tribendimidine nAChR (Ode-UNC-29:Ode-UNC-38:Ode-UNC-63) (Oesophagostomum dentatum, UniProt E5KIX9+V5J2B2+V5J336); experiment: Two-electrode voltage-clamp on Ode pyrantel/tribendimidine receptors expressed in Xenopus laevis oocytes; assay type: cell-based
Method: as §1, §2, §3

[3] = target: Ode levamisole nAChR (Ode-UNC-29:Ode-UNC-38:Ode-UNC-63:Ode-ACR-8) (Oesophagostomum dentatum, UniProt E5KIX9+L7MMZ7+V5J2B2+V5J336); experiment: Two-electrode voltage-clamp on Ode levamisole receptors expressed in Xenopus laevis oocytes; assay type: cell-based
Method: as §1
as §2, with “Microelectrodes for impaling oocytes were pulled using a Flaming/Brown horizontal electrode puller (Model P-97; Sutter Instruments, Novato, CA, USA). The microelectrodes were filled with 3 M KCl and their tips carefully broken with a piece of tissue paper to attain a resistance of 2–5 MΩ in recording solution (100 mM NaCl, 2.5 mM KCl, 1 mM CaCl2·2H2O and 5 mM HEPES, pH 7.3).” left out
as §3, with “We used one-way ANOVA to test for statistical differences among treatment groups. If the group means were statistically different (p < .05), we used the Tukey multiple comparison test to determine significant differences between groups.” left out

[4] = test system: A. suum muscle flaps; experiment: Muscle contraction assay, isometric contractions of Ascaris body muscle flaps; assay type: cell-based, Ascaris suum; settings: for EC50: Ascaris suum
Method: Adult A. suum were collected from the IMES slaughterhouse, Belgrade, Serbia and maintained in Locke's solution (155 mM NaCl, 5 mM KCl, 2 mM CaCl2, 1.5 mM NaHCO3 and 5 mM glucose) at 32 °C for 5 days. Locke's solution was changed daily. Ascaris muscle flaps for contraction studies were prepared as described in [Trailović et al. (2015)]. Briefly, 1 cm muscle body flaps were prepared by dissecting the anterior 2–3 cm part of the worm. A force transducer in an experimental bath containing 20 ml APF (23 mM NaCl, 110 mM Na acetate, 24 mM KCl, 6 mM CaCl2, 5 mM MgCl2, 11 mM glucose, 5 mM HEPES, pH 7.6) and 0.1% DMSO and bubbled with nitrogen was attached to each muscle flap. The bath was maintained at 37 °C during which isometric contractions of each flap were monitored on a PC computer using a BioSmart interface and eLAB software (EIUnit, Belgrade). The system allows real time recording, display and analysis of experimental data.
Isometric contractions of each Ascaris muscle flap in the absence and presence of monepantel were monitored on a PC computer using eLAB software (EIUnit, Belgrade). GraphPad Prism 5.0 (GraphPad Software Inc., La Jolla, CA, USA) was used to analyze the data. […] Single concentration-response relationships were fitted to the data as described in Section 2.5.1.

[5] = test system: A. suum; parameters: method as in Tritten et al., 2011; settings: 600 mg/kg; ref Tritten et al., 2011; cited from earlier work
[6] = test system: H. contortus MPTL-1 receptors; parameters: method as in Baur et al., 2015; settings: ref Baur et al., 2015, cited from earlier work
[7] = test system: C. elegans ACR-20 receptors; parameters: method as in Baur et al., 2015; settings: ref Baur et al., 2015, cited from earlier work
[8] = read-out: acetylcholine Rmax (mean ± s.e.m.)

Sequence of Asu-ACR-16 (nicotine sensitive nAChR) (F1KYJ9 entry or part of it): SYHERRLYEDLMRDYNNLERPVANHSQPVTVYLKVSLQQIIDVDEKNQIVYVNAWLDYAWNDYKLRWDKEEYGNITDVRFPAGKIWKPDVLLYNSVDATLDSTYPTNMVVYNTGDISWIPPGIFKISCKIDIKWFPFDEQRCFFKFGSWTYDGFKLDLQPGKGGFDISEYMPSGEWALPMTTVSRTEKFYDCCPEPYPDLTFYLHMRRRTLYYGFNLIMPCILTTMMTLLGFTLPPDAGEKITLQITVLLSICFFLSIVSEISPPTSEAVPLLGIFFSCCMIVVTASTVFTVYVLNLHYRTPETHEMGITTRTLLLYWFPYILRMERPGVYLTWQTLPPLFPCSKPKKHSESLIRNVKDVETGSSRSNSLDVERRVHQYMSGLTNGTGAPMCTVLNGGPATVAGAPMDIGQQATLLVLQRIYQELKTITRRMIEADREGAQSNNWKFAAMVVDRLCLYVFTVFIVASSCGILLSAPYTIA
Sequence of Ode levamisole nAChR (Ode-UNC-29:Ode-UNC-38:Ode-UNC-63:Ode-ACR-8) (L7MMZ7 entry or part of it): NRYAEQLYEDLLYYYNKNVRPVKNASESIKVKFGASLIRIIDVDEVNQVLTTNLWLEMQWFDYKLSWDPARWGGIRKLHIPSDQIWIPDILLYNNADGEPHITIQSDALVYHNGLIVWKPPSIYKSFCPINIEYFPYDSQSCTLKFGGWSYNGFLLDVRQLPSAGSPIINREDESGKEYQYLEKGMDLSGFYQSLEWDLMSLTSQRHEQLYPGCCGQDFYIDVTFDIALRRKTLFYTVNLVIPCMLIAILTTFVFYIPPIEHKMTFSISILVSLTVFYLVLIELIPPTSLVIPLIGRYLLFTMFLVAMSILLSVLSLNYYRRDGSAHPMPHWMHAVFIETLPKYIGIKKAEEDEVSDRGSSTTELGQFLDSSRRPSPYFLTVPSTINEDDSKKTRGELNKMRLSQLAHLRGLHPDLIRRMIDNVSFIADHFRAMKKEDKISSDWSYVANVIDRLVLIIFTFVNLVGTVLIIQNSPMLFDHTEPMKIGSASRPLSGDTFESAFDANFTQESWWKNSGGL
Sequence of Ode levamisole nAChR (Ode-UNC-29:Ode-UNC-38:Ode-UNC-63:Ode-ACR-8) (V5J2B2 entry or part of it): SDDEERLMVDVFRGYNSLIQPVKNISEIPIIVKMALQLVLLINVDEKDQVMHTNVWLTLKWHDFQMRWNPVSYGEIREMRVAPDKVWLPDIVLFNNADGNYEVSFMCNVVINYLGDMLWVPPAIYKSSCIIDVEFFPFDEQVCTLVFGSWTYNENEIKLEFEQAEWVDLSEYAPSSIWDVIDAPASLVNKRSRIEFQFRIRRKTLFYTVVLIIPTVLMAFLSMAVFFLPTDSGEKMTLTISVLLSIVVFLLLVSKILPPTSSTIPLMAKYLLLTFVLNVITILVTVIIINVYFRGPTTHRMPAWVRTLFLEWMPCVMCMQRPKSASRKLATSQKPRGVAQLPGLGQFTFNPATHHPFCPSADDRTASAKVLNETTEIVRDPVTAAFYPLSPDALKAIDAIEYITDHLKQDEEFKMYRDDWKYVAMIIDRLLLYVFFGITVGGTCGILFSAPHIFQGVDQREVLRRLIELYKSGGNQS
Sequence of Ode levamisole nAChR (Ode-UNC-29:Ode-UNC-38:Ode-UNC-63:Ode-ACR-8) (E5KIX9 entry or part of it): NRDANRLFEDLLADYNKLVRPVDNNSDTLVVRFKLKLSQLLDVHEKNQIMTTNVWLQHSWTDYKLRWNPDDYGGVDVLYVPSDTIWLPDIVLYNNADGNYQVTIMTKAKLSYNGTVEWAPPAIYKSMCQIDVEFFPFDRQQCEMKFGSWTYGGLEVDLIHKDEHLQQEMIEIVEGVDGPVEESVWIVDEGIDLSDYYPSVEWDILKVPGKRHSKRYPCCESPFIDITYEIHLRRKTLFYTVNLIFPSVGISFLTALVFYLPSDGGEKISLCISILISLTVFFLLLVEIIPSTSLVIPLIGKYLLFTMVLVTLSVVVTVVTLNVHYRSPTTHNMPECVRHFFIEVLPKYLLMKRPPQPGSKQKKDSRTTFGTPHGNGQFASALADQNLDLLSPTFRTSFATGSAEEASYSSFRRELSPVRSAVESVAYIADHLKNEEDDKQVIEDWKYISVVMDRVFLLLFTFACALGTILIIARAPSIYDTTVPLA
Sequence of Ode levamisole nAChR (Ode-UNC-29:Ode-UNC-38:Ode-UNC-63:Ode-ACR-8) (V5J336 entry or part of it): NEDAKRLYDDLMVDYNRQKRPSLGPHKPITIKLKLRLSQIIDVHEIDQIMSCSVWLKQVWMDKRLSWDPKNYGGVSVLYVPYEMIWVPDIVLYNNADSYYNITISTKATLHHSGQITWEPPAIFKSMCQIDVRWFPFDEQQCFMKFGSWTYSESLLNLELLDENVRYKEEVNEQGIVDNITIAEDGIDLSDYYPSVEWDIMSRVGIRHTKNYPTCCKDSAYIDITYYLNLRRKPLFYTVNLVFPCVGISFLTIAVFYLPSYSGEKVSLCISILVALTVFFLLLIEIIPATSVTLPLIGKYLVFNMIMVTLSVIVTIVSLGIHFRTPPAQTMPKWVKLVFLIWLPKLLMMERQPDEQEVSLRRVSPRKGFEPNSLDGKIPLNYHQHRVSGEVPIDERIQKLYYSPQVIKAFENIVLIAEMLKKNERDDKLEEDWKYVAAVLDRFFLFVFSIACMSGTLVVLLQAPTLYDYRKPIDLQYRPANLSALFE
Sequence of Ode pyrantel/tribendimidine nAChR (Ode-UNC-29:Ode-UNC-38:Ode-UNC-63) (V5J336 entry or part of it): as above
Sequence of Ode pyrantel/tribendimidine nAChR (Ode-UNC-29:Ode-UNC-38:Ode-UNC-63) (V5J2B2 entry or part of it): as the sequence (V5J2B2 entry or part of it) above
Sequence of Ode pyrantel/tribendimidine nAChR (Ode-UNC-29:Ode-UNC-38:Ode-UNC-63) (E5KIX9 entry or part of it): as the sequence (E5KIX9 entry or part of it) above

CC(=O)OCC[N+](C)(C)C [Acetylcholine]
Emax [1, 8]: 97.5 ± 1.2%
EC50 [2]: 11.3 ± 1.3 µM
Emax [2, 8]: 118 ± 4.5%
Emax [3, 8]: 108.8 ± 1%
EC50 ([4]; read-out: acetylcholine EC50 (contraction)): 5.3 µM
EC50 ([4]; read-out: acetylcholine log EC50 ± s.e.m. (contraction) (converted)): 5.01 µM
acetylcholine Rmax (mean ± s.e.m.), contraction ([4]; acetylcholine alone (control)): 1.7 ± 0.4 g

C[C@](C#N)(COc1cc(C#N)ccc1C(F)(F)F)NC(=O)c1ccc(SC(F)(F)F)cc1 [monepantel, N-[(2S)-2-cyano-1-[5-cyano-2-(trifluoromethyl)phenoxy]propan-2-yl]-4-(trifluoromethylsulfanyl)benzamide]
IC50 [1]: 0.2 µM
type of antagonism of acetylcholine responses ([1]; co-applied with acetylcholine): non-competitive antagonism
maximum inhibition ([1]; component with IC50 1.6 nM): 40%
maximum inhibition ([1]; component with IC50 0.2 μM): ~100%
agonist action (receptor activation) ([1]; monepantel applied on its own): did not cause activation
IC50 [2]: 1.7 ± 0.7 µM
type of antagonism of acetylcholine responses ([2]; co-applied with acetylcholine): non-competitive antagonism
agonist action (receptor activation) ([2]; monepantel alone): did not activate
IC50 [3]: 5 ± 0.5 µM
type of antagonism of acetylcholine responses ([3]; co-applied with acetylcholine): non-competitive antagonist
agonist action (receptor activation) ([3]; monepantel applied alone): failed to activate
type of antagonism of acetylcholine induced contractions ([4]; 1-30 μM monepantel): mixture of competitive and non-competitive antagonism
acetylcholine Rmax (mean ± s.e.m.), contraction ([4]; in the presence of 3 μM monepantel): 1.1 ± 0.3 g
acetylcholine Rmax (mean ± s.e.m.), contraction ([4]; in the presence of 10 μM monepantel): 1.1 ± 0.5 g
acetylcholine Rmax (mean ± s.e.m.), contraction ([4]; in the presence of 30 μM monepantel): 0.5 ± 0.4 g
effect on baseline tension ([4]; monepantel on its own): did not produce any significant change in baseline tension
in vivo activity against A. suum [5]: lack in vivo activity
concentration at which it acts as direct agonist ([6]; high concentrations): > 0.1 µM
concentration at which it acts as positive allosteric modulator ([6]; low concentrations): < 1 nM
concentration at which it acts as direct agonist ([7]; high concentrations): > 0.1 µM
concentration at which it acts as positive allosteric modulator ([7]; low concentrations): < 1 nM
